From patent publication US20040072694A1, “Method to inhibit ethylene responses in plants” (priority 2002, published 2004)

Experiments:
ethylene receptors = test: Banana ripening protection from ethylene; format: in vivo; conditions: 24 hours of exposure in 3-liter jar, then 333 microliters per liter of ethylene for 12-15 hours; banana peels
Description: Compounds which block the ethylene receptors can prevent bananas from ripening. Treatment of bananas with 30 nl/l of Compound 1 protected banana peels from the effects of ethylene. The bananas were treated using the following general procedure:
An ether solution of a known amount of the active compound was placed on filter paper in a 3-liter jar. The amount of ether used was without effect when applied alone on a banana contained in a 3-liter jar. The jar was sealed and the banana was removed after 24 hours of exposure. The banana was then treated with 333 microliters per liter of ethylene in a 3-liter jar for 12-15 hours. It was then observed for ripening. The minimum concentration that protected the banana was determined.

[1] = system: Patio variety tomato seedlings; test: Tomato Epinasty Test, volatile gas treatment; format: in vivo; conditions: applied as a gas at 1000 ppm; ethylene 10 ppm v/v after four hours, scored sixteen hours later
Description: Objective: The test procedure is designed to determine the ability of an experimental compound to block the epinastic growth response induced by ethylene in tomato plants when the experimental compound is administered either as a volatile gas or as a component of a spray solution. Treatment chambers are of an appropriate size for the test plants and are airtight. Each is fitted with a reusable septum to be used for injection of ethylene. Test plants are Patio variety tomato seedlings planted two plants per three inch square plastic pot. Volatile gas treatment entails placing two pots of Patio var. tomatoes into a polystyrene 4.8L volume treatment chamber along with one-half (upper or lower section) of a 50×9 mm plastic Petri dish containing a Gelman filter pad. The appropriate amount of experimental compound, dissolved in 1.0 ml acetone, is pipetted onto the filter pad and the chamber immediately sealed. Four hours later ethylene gas equal to 10 ppm v/v final concentration is injected into the sealed chamber. Sixteen hours later the chambers are opened in an exhaust hood, allowed to air and the plants scored visually for the degree of protection against ethylene-induced epinasty conferred by the experimental compound when compared to ethylene treated and untreated controls on a scale of 0 to 10. A rating of 10 means complete protection. […]

In the case of `OCC1=CC1` [Compound 1, 1-Hydroxymethylcyclopropene], the “minimum concentration that protected the banana” value (ethylene receptors) was 30 nl/l.

With `OCCC1=CC1` [Compound 2, 1-(2-Hydroxyethyl)-cyclopropene] the “rating of protection against ethylene-induced epinasty (scale of 0 to 10; 10 means complete protection)” value [1] was 10.
